Data set [1] relates to Hepatotoxicity. Nature of the data set: Literature-mined compound from Fourches et al multi-species drug-induced liver injury (DILI) dataset, effect in humans. Particulars: human.
Data set [2] has as its system Hepatotoxicity. Put plainly: Literature-mined compound from Fourches et al multi-species drug-induced liver injury (DILI) dataset, effect in rodents. Particulars: rodentia.
Data set [3] deals with Hepatotoxicity. Nature of the data set: Literature-mined compound from Fourches et al multi-species drug-induced liver injury (DILI) dataset, effect in non-rodents.

Molecules are shown by their SMILES.

Take `CC(C)(Oc1ccc(CCNC(=O)c2ccc(Cl)cc2)cc1)C(=O)O` [BEZAFIBRATE]: the Hepatotoxicity entry was “drug-induced liver injury reported” in data set [1], “drug-induced liver injury reported” in data set [2] and “no drug-induced liver injury reported” in data set [3].

As for `CC(O)(CS(=O)(=O)c1ccc(F)cc1)C(=O)Nc1ccc(C#N)c(C(F)(F)F)c1` (centres undefined) [BICALUTAMIDE], the results for the Hepatotoxicity entry in data set [1], in data set [2] and in data set [3] were “drug-induced liver injury reported”, “no drug-induced liver injury reported” and “no drug-induced liver injury reported”, respectively.

Consider `c1ccc(-c2ccc(C(c3ccccc3)n3ccnc3)cc2)cc1` (centres undefined) [BIFONAZOLE], for which the Hepatotoxicity entry in data set [1] was “no drug-induced liver injury reported”; in data set [2] it was “drug-induced liver injury reported”; in data set [3] it was “no drug-induced liver injury reported”.

On to `O=C(O)CCCC[C@@H]1SC[C@@H]2NC(=O)N[C@@H]21` [BIOTIN], for which the Hepatotoxicity result in data set [1] was “drug-induced liver injury reported”; in data set [2], “no drug-induced liver injury reported”; in data set [3] it was “no drug-induced liver injury reported”.

For `CC(C)NCC(O)COc1ccc(COCCOC(C)C)cc1` (centres undefined) [BISOPROLOL], the Hepatotoxicity entry in data set [1] is on record as “drug-induced liver injury reported”; in data set [2] it was “no drug-induced liver injury reported”; in data set [3] it was “no drug-induced liver injury reported”.

For `CC(C)C[C@H](NC(=O)[C@H](Cc1ccccc1)NC(=O)c1cnccn1)B(O)O` [BORTEZOMIB], the Hepatotoxicity entry in data set [1] (Liver) is given as “drug-induced liver injury reported”; in data set [2] (Liver), “drug-induced liver injury reported”; in data set [3] (Liver), “no drug-induced liver injury reported”.

Turning to `COc1ccccc1Oc1c(NS(=O)(=O)c2ccc(C(C)(C)C)cc2)nc(-c2ncccn2)nc1OCCO` [BOSENTAN], the Hepatotoxicity result in data set [1], in data set [2] and in data set [3] was “drug-induced liver injury reported” in each case.

For the molecule `Nc1c(CC(=O)O)cccc1C(=O)c1ccc(Br)cc1` [BROMFENAC], the Hepatotoxicity result is “drug-induced liver injury reported” in data set [1], “no drug-induced liver injury reported” in data set [2] and “no drug-induced liver injury reported” in data set [3].

Regarding `CC(C)C(Br)C(=O)NC(N)=O` (centres undefined) [BROMISOVALUM], the Hepatotoxicity entry in data set [1] is “drug-induced liver injury reported”; in data set [2], “drug-induced liver injury reported”; in data set [3] it was “no drug-induced liver injury reported”.

On to `CC(C)C[C@H]1C(=O)N2CCC[C@H]2[C@]2(O)O[C@](NC(=O)[C@@H]3C=C4c5cccc6[nH]c(Br)c(c56)C[C@H]4N(C)C3)(C(C)C)C(=O)N12` [BROMOCRIPTINE], for which the Hepatotoxicity entry in data set [1] was “no drug-induced liver injury reported”; in data set [2] it was “drug-induced liver injury reported”; in data set [3], “no drug-induced liver injury reported”.

With `Cc1nnc2n1-c1sc(Br)cc1C(c1ccccc1Cl)=NC2` [BROTIZOLAM], the Hepatotoxicity entry in data set [1] is reported as “no drug-induced liver injury reported”; in data set [2], “drug-induced liver injury reported”; in data set [3] it was “no drug-induced liver injury reported”.

For `CCCC(=O)Nc1ncnc2c1ncn2[C@@H]1O[C@@H]2COP(=O)(O)O[C@H]2[C@H]1OC(=O)CCC` [BUCLADESINE], the Hepatotoxicity result in data set [1], in data set [2] and in data set [3] was “drug-induced liver injury reported” in each case.

In the case of `CCCC1O[C@@H]2C[C@H]3[C@@H]4CCC5=CC(=O)C=C[C@]5(C)[C@H]4[C@@H](O)C[C@]3(C)[C@]2(C(=O)CO)O1` (some centres undefined) [BUDESONIDE], the Hepatotoxicity entry is “drug-induced liver injury reported” in data set [1], “drug-induced liver injury reported” in data set [2] and “no drug-induced liver injury reported” in data set [3].

Regarding `CCCCNc1cc(C(=O)O)cc(S(N)(=O)=O)c1Oc1ccccc1` [BUMETANIDE], the Hepatotoxicity result in data set [1] is reported as “no drug-induced liver injury reported”; in data set [2], “no drug-induced liver injury reported”; in data set [3] it was “drug-induced liver injury reported”.

For the molecule `CCCCN1CCCCC1C(=O)Nc1c(C)cccc1C` (centres undefined) [BUPIVACAINE], the Hepatotoxicity entry in data set [1] is on record as “no drug-induced liver injury reported”; in data set [2], “drug-induced liver injury reported”; in data set [3], “no drug-induced liver injury reported”.

Take `CO[C@]12CC[C@@]3(C[C@@H]1[C@](C)(O)C(C)(C)C)[C@H]1Cc4ccc(O)c5c4[C@@]3(CCN1CC1CC1)[C@H]2O5` [BUPRENORPHINE]: the Hepatotoxicity result in data set [1] is listed as “drug-induced liver injury reported”; in data set [2] it was “drug-induced liver injury reported”; in data set [3], “no drug-induced liver injury reported”.

With `CC(NC(C)(C)C)C(=O)c1cccc(Cl)c1` (centres undefined) [BUPROPION], the values for the Hepatotoxicity result in data set [1], in data set [2] and in data set [3] were “drug-induced liver injury reported”, “no drug-induced liver injury reported” and “no drug-induced liver injury reported”, respectively.

Take `O=C1CC2(CCCC2)CC(=O)N1CCCCN1CCN(c2ncccn2)CC1` [BUSPIRONE]: the Hepatotoxicity entry in data set [1] is recorded as “drug-induced liver injury reported”; in data set [2], “no drug-induced liver injury reported”; in data set [3], “no drug-induced liver injury reported”.

As for `CS(=O)(=O)OCCCCOS(C)(=O)=O` [BUSULFAN], the results for the Hepatotoxicity result in data set [1], in data set [2] and in data set [3] were “drug-induced liver injury reported”, “drug-induced liver injury reported” and “no drug-induced liver injury reported”, respectively.

As to `CCCCOCN(C(=O)CCl)c1c(CC)cccc1CC` [BUTACHLOR], the Hepatotoxicity result in data set [1] is reported as “no drug-induced liver injury reported”; in data set [2], “drug-induced liver injury reported”; in data set [3] it was “no drug-induced liver injury reported”.

As for `C=CCC1(CC(C)C)C(=O)NC(=O)NC1=O` [BUTALBITAL], the Hepatotoxicity result is listed as “drug-induced liver injury reported” in data set [1], “no drug-induced liver injury reported” in data set [2] and “no drug-induced liver injury reported” in data set [3].

As to `CCCCC1(CC)C(=O)NC(=O)NC1=O` [BUTETHAL], the Hepatotoxicity result in data set [1] is given as “no drug-induced liver injury reported”; in data set [2], “drug-induced liver injury reported”; in data set [3] it was “no drug-induced liver injury reported”.

As to `Cn1c(=O)c2c(ncn2C)n(C)c1=O` [CAFFEINE], the Hepatotoxicity entry in data set [1] is “drug-induced liver injury reported”; in data set [2], “drug-induced liver injury reported”; in data set [3], “no drug-induced liver injury reported”.

`C=C1/C(=C\C=C2/CCC[C@]3(C)[C@@H]([C@H](C)CCCC(C)(C)O)CC[C@@H]23)C[C@@H](O)C[C@@H]1O` [CALCITRIOL]: the Hepatotoxicity entry was “drug-induced liver injury reported” in data set [1], “drug-induced liver injury reported” in data set [2] and “no drug-induced liver injury reported” in data set [3].

`CC[C@@]1(O)C(=O)OCc2c1cc1n(c2=O)Cc2cc3ccccc3nc2-1` [CAMPTOTHECIN]: the Hepatotoxicity result in data set [1] is given as “drug-induced liver injury reported”; in data set [2] it was “drug-induced liver injury reported”; in data set [3], “no drug-induced liver injury reported”.

For the molecule `CCOc1nc2cccc(C(=O)OC(C)OC(=O)OC3CCCCC3)c2n1Cc1ccc(-c2ccccc2-c2nnn[nH]2)cc1` (centres undefined) [CANDESARTAN CILEXETIL], the values for the Hepatotoxicity result in data set [1], in data set [2] and in data set [3] were “drug-induced liver injury reported”, “drug-induced liver injury reported” and “no drug-induced liver injury reported”, respectively.

Regarding `C=C(C)[C@@H]1CCC(C)=C[C@H]1c1c(O)cc(CCCCC)cc1O` [CANNABIDIOL], the Hepatotoxicity entry was “drug-induced liver injury reported” in data set [1], “drug-induced liver injury reported” in data set [2] and “no drug-induced liver injury reported” in data set [3].

As for `CCCCCOC(=O)Nc1nc(=O)n([C@@H]2O[C@H](C)[C@@H](O)[C@H]2O)cc1F` [CAPECITABINE], the Hepatotoxicity result is given as “drug-induced liver injury reported” in data set [1], “drug-induced liver injury reported” in data set [2] and “no drug-induced liver injury reported” in data set [3].

Consider `COc1cc(CNC(=O)CCCC/C=C/C(C)C)ccc1O` [CAPSAICIN], for which the Hepatotoxicity result is “drug-induced liver injury reported” in data set [1], “drug-induced liver injury reported” in data set [2] and “no drug-induced liver injury reported” in data set [3].

In the case of `C[C@H](CS)C(=O)N1CCC[C@H]1C(=O)O` [CAPTOPRIL], the Hepatotoxicity result is listed as “drug-induced liver injury reported” in data set [1], “drug-induced liver injury reported” in data set [2] and “no drug-induced liver injury reported” in data set [3].

On to `C[N+](C)(C)CCOC(N)=O.[Cl-]` [CARBACHOL], for which the values for the Hepatotoxicity result in data set [1], in data set [2] and in data set [3] were “no drug-induced liver injury reported”, “drug-induced liver injury reported” and “no drug-induced liver injury reported”, respectively.

`NC(=O)N1c2ccccc2C=Cc2ccccc21` [CARBAMAZEPINE]: the Hepatotoxicity entry was “drug-induced liver injury reported” in data set [1], “drug-induced liver injury reported” in data set [2] and “no drug-induced liver injury reported” in data set [3].

For the molecule `CNC(=O)Oc1cccc2ccccc12` [CARBARIL], the Hepatotoxicity result is “no drug-induced liver injury reported” in data set [1], “drug-induced liver injury reported” in data set [2] and “no drug-induced liver injury reported” in data set [3].
